The source of these data is patent US20250049787A1, “TREATMENT FOR ACUTE MYELOID LEUKEMIA OR LYMPHOMA” (UNIVERSITY HEALTH NETWORK, priority 2021, published 2025).

One assay addresses T1, FLT3 (Homo sapiens, UniProt P36888).
T1 construct: purchased Reaction Biology Corp. (Malvern, PA, USA)
The experiment in a line: Radiometric HotSpot kinase assay, FLT3. Type of assay: biochemical. The following applies: ATP 50 μM; peptide substrate 5 μM. On the procedure:
Kinase IC50 values were determined by Reaction Biology Corp. (Malvern, PA, USA) in the Radiometric HotSpot™ Assay using recombinantly expressed kinase enzymes. Compound (I) was tested in a 10-dose IC50 curve in duplicate. Enzymes were tested at the Km [ATP] for each enzyme using the Reaction Biology binning structure. Kinase reactions were initiated by the addition of protein or peptide substrate and [γ-^33P]-adenosine triphosphate (ATP). Phosphorylated substrates were captured by spotting of the reaction mix on filter membranes, and enzymatic activity was quantified by liquid scintillation counting. Substrates and ATP concentrations are as follows: • FLT3: Peptide substrate, [EAIYAAPFAKKK], 5 μM: ATP 50 μM • FLT3-ITD (internal tandem duplication): Peptide substrate, [EAIYAAPFAKKK], 20 μM: ATP, 30 μM • FLT3 (D835Y): Peptide substrate, [EAIYAAPFAKKK], 5 μM: ATP 20 μM • TAK1: Casein, 1 mg/mL: ATP, 20 μM

The subject of another assay is KOPN-8. In words: Growth inhibition, Alamar Blue. The assay is classed as cell-based. Conditions: Homo sapiens, 72 h; KOPN-8, B-ALL; 3 days. On the procedure:
(§1) Cell lines were obtained from American Type Culture Collection (ATCC) and maintained according to the supplier's instructions, and from Dr. Mark Minden (Princess Margaret Cancer Centre, Toronto, Canada). Short tandem repeat (STR) profiling was used to verify authenticity of the cell lines. Peripheral blood from healthy human donors was obtained from the Hematology Malignancy Tissue Bank at the University Health Network. Peripheral blood mononuclear cells (PBMC) were prepared from the blood by density gradient centrifugation using Ficoll-Paque PLUS by manufacturer's instructions (GE Healthcare Life Sciences). […] Compound (I) tartrate was prepared as a 10 mM stock solution in 100% DMSO. The stock solution was diluted with RPMI-1640 (Invitrogen) containing 10% FBS (fetal bovine serum) such that the final concentrations ranged from 300 fM to 300 μM. Aliquots (20 μL) from each concentration were overlaid to 180 μL of pre-seeded cells to achieve final concentrations of 30 fM to 30 μM. After 3 days, cell growth in each well was assessed by Alamar Blue assay reagent (Invitrogen). Raw fluorescence (λEM=590 nm) values were adjusted by subtracting the average of the baseline readings from untreated cells assessed one day after cell seeding. Relative cell growth was calculated by comparing to DMSO-treated cells. The concentrations at which cell growth was inhibited by 50% (growth inhibition IC50) were calculated using GraphPad PRISM software (GraphPad Software Inc.).
(In general: Resazurin is reduced to fluorescent resorufin, in cell work by metabolically active cells.)

A further assay relates to MOLM-13. In words: Growth inhibition, Alamar Blue. Conditions: Homo sapiens, 72 h; MOLM-13, AML M5; FLT3 ITD + wild-type, protein not expressed; 3 days. The assay is classed as cell-based. On the procedure: as §1
The subject of a further assay is K562. In words: Growth inhibition, Alamar Blue. The following applies: Homo sapiens, 72 h; K562, CML; 3 days. The assay is classed as cell-based. The procedure:
as §1

Another assay deals with THP-1. In words: Growth inhibition, Alamar Blue. Type of assay: cell-based. Conditions: Homo sapiens, 72 h; THP-1, AML M5; FLT3 wild-type, protein expressed; 3 days. The procedure:
as §1

Assay [1] concerns cell surface FLT3-ITD. The experiment in a line: Flow cytometry, cell surface FLT3 in primary human AML cells. The following applies: FLT3-ITD positive primary AML cells, viable CD14− blasts, 48 and 72 hours, dose-dependent. The assay is classed as cell-based. On the procedure: (§2) Patient samples were obtained from Dr. Mark Minden (Princess Margaret Cancer Centre, Toronto, Ontario, Canada). FLT3-ITD positive AML cells were treated with the indicated concentrations of Compound (I) for 48 and 72 hours at 37° C. and 5% CO2 and stained with APC-CD45, PECy7-CD38, APC/Fire 750-CD33, PerCP-CD14, PE-FLT3 (Beckman Coulter, Cat. IM2234U), PE/Dazzle 594-CD117 (BioLegend, Cat. #313226) or isotype control antibodies and analyzed on a BD LSRFortessa II flow cytometry analyzer. Data were analyzed using FlowJo software and representative data are shown. Compound (I) treatment increases the cell surface expression of FLT3 and c-KIT in a dose-dependent manner in viable CD14^− AML blast cells. Similar results were obtained in additional FLT3-ITD positive primary AML samples (data not shown).
On the technique in general: Flow cytometry measures light scatter and fluorescence of single cells or particles in a stream.

In assay [2] the test system is mature 160 kDa form of FLT3-ITD. The experiment in a line: Immunoblot of FLT3 in MV-4-11 cells. Type of assay: cell-based, human. Conditions: 4 hours, dose-dependent. The procedure: MV-4-11 cells (FLT3 LOH, FLT3-ITD positive cells) were treated with the indicated concentrations of Compound (I) tartrate for 4 hours at 37° C. and 5% CO2. Lysates were analyzed by immunoblot analysis with antibodies against FLT3 (Cell Signaling Technology, Inc., Cat. #3462), PARP (Cell Signaling Technology, Inc., Cat. #9542) and GAPDH (Millipore, Cat. #MAB374). Protein bands were visualized using a LI-COR Odyssey near infrared imager and representative data are shown. Compound (I) tartrate treatment increases the expression of the mature 160 kDa form of FLT3-ITD in MV-4-11 cells in a dose-dependent manner. Apoptotic cell death as measured by PARP cleavage was induced by Compound (I) tartrate treatment.

The test system of another assay is c-KIT (CD117). In words: Flow cytometry, cell surface c-KIT in primary human AML cells. Type of assay: cell-based. Conditions: FLT3-ITD positive primary AML cells, viable CD14− blasts, 48 and 72 hours, dose-dependent. The procedure: as §2
Assay [3] concerns FLT3-ITD-expressing 32D cells (20 ng/ml mouse IL-3). In words: Growth inhibition, 32D transfectants with mouse IL-3. The following applies: 32D transfectant FLT3-ITD. Type of assay: cell-based. The procedure: as §1, with “The concentrations at which cell growth was inhibited by 50% (growth inhibition IC50) were calculated using GraphPad PRISM software (GraphPad Software Inc.).” left out

Assay [4] concerns cell surface FLT3-ITD. The experiment in a line: Flow cytometry, cell surface FLT3-ITD in MV-4-11 cells. The following applies: 100 nM, 4 hours. Type of assay: cell-based, human. The procedure:
MV-4-11 cells were treated with 100 nM Compound (I) tartrate or DMSO control for 4 hours at 37° C. and 5% CO2 and stained with PE-FLT3 (Beckman Coulter, Cat. IM2234U) or an isotype control antibody and analyzed on a BD LSRFortessa II flow cytometry analyzer. Data were analyzed using FlowJo software and representative data are shown. […] Compound (I) tartrate treatment increases the cell surface expression of FLT3-ITD in MV-4-11 cells.

Counter-ions that a name gives are not always drawn.

T1 sequence (P36888 27-993): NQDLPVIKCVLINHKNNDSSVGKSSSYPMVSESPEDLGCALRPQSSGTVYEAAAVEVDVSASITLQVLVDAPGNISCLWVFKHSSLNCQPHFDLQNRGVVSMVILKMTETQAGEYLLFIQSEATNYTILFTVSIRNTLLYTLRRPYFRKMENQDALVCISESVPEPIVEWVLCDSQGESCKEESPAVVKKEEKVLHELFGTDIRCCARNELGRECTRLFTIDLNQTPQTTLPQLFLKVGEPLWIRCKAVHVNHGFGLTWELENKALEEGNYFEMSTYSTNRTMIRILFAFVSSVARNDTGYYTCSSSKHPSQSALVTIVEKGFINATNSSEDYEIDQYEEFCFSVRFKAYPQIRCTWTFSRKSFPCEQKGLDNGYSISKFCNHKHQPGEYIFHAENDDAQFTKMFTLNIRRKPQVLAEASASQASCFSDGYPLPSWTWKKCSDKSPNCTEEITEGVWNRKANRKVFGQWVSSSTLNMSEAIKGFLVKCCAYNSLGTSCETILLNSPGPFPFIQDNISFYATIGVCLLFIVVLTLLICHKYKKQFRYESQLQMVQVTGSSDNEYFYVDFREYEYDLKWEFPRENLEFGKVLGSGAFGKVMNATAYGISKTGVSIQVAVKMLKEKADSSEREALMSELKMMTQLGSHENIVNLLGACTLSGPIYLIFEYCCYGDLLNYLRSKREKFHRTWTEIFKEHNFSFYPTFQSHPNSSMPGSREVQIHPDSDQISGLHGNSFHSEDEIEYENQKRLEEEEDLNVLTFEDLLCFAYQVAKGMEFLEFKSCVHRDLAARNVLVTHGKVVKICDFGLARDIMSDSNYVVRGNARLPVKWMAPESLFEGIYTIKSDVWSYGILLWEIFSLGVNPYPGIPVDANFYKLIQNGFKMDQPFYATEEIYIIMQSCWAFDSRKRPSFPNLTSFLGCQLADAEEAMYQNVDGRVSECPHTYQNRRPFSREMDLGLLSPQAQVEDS

`CN1CCN(c2ccc3nc(-c4c(N)c5ccsc5[nH]c4=O)[nH]c3c2)CC1` [Compound (I) tartrate, 4-amino-5-(6-(4-methylpiperazin-1-yl)-1H-benzo[d]imidazol-2-yl)thieno[2,3-b]pyridin-6(7H)-one]: the IC50 – broadly, the concentration needed to halve the response being measured – turned out to be 0.043 nM against FLT3; 3300 nM in the assay with KOPN-8; 1900 nM in the assay with MOLM-13; 6000 nM with K562; 1300 nM in the assay on THP-1; 1440 nM in assay [3]. Also, the “cell surface expression of FLT3” value in the assay with cell surface FLT3-ITD [1] is listed as “increases”. Besides, the “expression of the mature 160 kDa form of FLT3-ITD” value in assay [2] was “increases”. In addition, the “cell surface expression of c-KIT (CD117)” value in the assay on c-KIT (CD117) is “increases”. Also, the “cell surface expression of FLT3-ITD” value in the assay on cell surface FLT3-ITD [4] is “increases”.
